Laboratory results reported in patent publication US12084472B2 (Ardelyx, Inc., priority 2015, dated 2024).

molecular target: T1, human TGR5 (Homo sapiens, UniProt Q8TDU6); experiment: Cell-based TGR5 assay (cAMP generation, HTRF); conditions: HEK293 cells stably transfected with human TGR5; cAMP by HTRF; 30 minutes at 37° C.; read-out: pEC50 Human TGR5 (converted)
T1 construct: expressed in transfected cells; host or cells: HEK293
T1 sequence (Q8TDU6 1-330): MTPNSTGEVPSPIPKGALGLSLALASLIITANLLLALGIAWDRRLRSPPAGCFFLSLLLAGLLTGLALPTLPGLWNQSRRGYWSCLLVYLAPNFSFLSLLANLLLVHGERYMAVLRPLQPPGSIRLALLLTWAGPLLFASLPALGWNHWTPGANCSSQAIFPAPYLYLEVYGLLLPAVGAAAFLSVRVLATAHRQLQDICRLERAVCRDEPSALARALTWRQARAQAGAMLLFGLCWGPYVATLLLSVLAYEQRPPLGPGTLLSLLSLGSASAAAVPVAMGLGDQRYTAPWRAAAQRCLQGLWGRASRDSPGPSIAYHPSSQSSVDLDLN
Method in brief: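 First, compounds in 3-fold serial dilution were placed in HBSS with 10 mM HEPES pH 7.4 and 0.5 mM IBMX. Next, human TGR5-expressing HEK293 cells were added and incubated 30 min at 37° C. Finally, cAMP was detected by HTRF and pEC50 derived by logistic fitting.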

EC50 | SMILES
126 to 1000 nM | CCNC(=O)CCN(C[C@H](O)[C@@H](O)[C@H](O)[C@H](O)CO)C(=O)CCCC(C)c1ccc(Cl)c(CNC2(c3cnccc3-c3ccccc3OC3CC3)CC2)c1 (stereo partly drawn) [Compound I-344, 5-{4-chloro-3-[({1-[4-(2-cyclopropoxyphenyl)pyridin-3-yl]cyclopropyl}amino)methyl]phenyl}-N-[2-(ethylcarbamoyl)ethyl]-N-[(2S,3R,4R,5R)-2,3,4,5,6-pentahydroxyhexyl]hexanamide]
126 to 1000 nM | O=C(NCCCC(CO)c1ccc(Cl)c(CNC2(c3cnccc3-c3ccccc3OC3CC3)CC2)c1)[C@@H](O)[C@@H](O)[C@H](O)[C@@H](O)CO (stereo partly drawn) [Compound I-380, (2S,3S,4R,5S)-N-(4-[4-chloro-3-[([1-[4-(2-cyclopropoxyphenyl)pyridin-3-yl]cyclopropyl]amino)methyl]phenyl]-5-hydroxypentyl)-2,3,4,5,6-pentahydroxyhexanamide]
126 to 1000 nM | CS(=O)(=O)NCCCN(CCCCSc1ccc(Cl)c(CNC2(c3cnccc3-c3ccccc3OC3CC3)CC2)c1)C(=O)[C@@H](O)[C@@H](O)[C@H](O)[C@@H](O)CO [Compound I-591, (2S,3S,4R,5S)-N-[4-({4-chloro-3-[({1-[4-(2-cyclopropoxyphenyl)pyridin-3-yl]cyclopropyl}amino)methyl]phenyl}sulfanyl)butyl]-2,3,4,5,6-pentahydroxy-N-(3-methanesulfonamidopropyl) hexanamide]
< 100 nM | CN(CCCCNC(=O)NC[C@H](O)[C@@H](O)[C@H](O)[C@H](O)CO)S(=O)(=O)c1ccc(C(F)(F)F)c(COC2(c3cnccc3-c3ccccc3OC3CC3)CC2)c1 [Compound I-469, 1-{4-[N-methyl3-({1-[4-(2-cyclopropoxyphenyl)pyridin-3-yl]cyclopropoxy}methyl)-4-(trifluoromethyl)benzenesulfonamido]butyl}-3-[(2S,3R,4R,5R)-2,3,4,5,6-pentahydroxyhexyl]urea]
< 100 nM | O=C(O)CN1CCN(C(=O)CCCCc2cc(Cl)c(COC3(c4cnccc4-c4ccccc4OC4CC4)CC3)cc2Cl)CC1 [Compound I-88, 2-(4-(5-(2,5-dichloro-4-((1-(4-(2-cyclopropoxyphenyl)pyridin-3-yl)cyclopropoxy)methyl)phenyl)pentanoyl)piperazin-1-yl)acetic acid]
< 100 nM | CC(CCCC(=O)NCCN1CCN(CC(=O)NC[C@H](O)[C@@H](O)[C@H](O)[C@H](O)CO)CC1)c1ccc(Cl)c(CNC2(c3cnccc3-c3ccccc3OC3CC3)CC2)c1 (stereo partly drawn) [Compound I-324, 5-{4-chloro-3-[({1-[4-(2-cyclopropoxyphenyl)pyridin-3-yl]cyclopropyl}amino)methyl]phenyl}-N-{2-[4-({[(2S,3R,4R,5R)-2,3,4,5,6-pentahydroxyhexyl]carbamoyl}methyl)piperazin-1-yl]ethyl}hexanamide]
< 100 nM | CN(CCCCCSc1ccc(Cl)c(CNC2(c3cnccc3-c3ccccc3OC3CC3)CC2)c1)C(=O)[C@@H](O)[C@@H](O)[C@H](O)[C@@H](O)CO [Compound I-507, (2S,3S,4R,5S)-N-[5-({4-chloro-3-[({11-[4-(2-cyclopropoxyphenyl)pyridin-3-yl]cyclopropyl}amino)methyl]phenyl}sulfanyl)pentyl]-2,3,4,5,6-pentahydroxy-N-methylhexanamide]
< 100 nM | O=C([C@@H](O)[C@@H](O)[C@H](O)[C@@H](O)CO)N(CCO)CCCCc1cc(Cl)c(COC2(c3cnccc3-c3ccccc3OC3CC3)CC2)cc1Cl [Compound I-213, (2S,3S,4R,5S)-N-{4-[2,5-dichloro-4-({1-[4-(2-cyclopropoxyphenyl)pyridin-3-yl]cyclopropoxy}methyl)phenyl]butyl}-2,3,4,5,6-pentahydroxy-N-(2-hydroxyethyl)hexanamide]
< 100 nM | Cc1cc(COC2(c3cnccc3-c3ccccc3OC3CC3)CC2)c(Cl)cc1CCCCNC(=O)NC[C@H](O)[C@@H](O)[C@H](O)[C@H](O)CO [Compound I-65, 1-[4-[5-chloro-4-([1-[4-(2-cyclopropoxyphenyl)pyridin-3-yl]cyclopropoxy]methyl)-2-methylphenyl]butyl]-3-[(2S,3R,4R,5R)-2,3,4,5,6-pentahydroxyhexyl]urea]
< 100 nM | O=C([C@@H](O)[C@@H](O)[C@H](O)[C@@H](O)CO)N(CCCCO)CCCCCSc1ccc(Cl)c(CNC2(c3cnccc3-c3ccccc3OC3CC3)CC2)c1 [Compound I-600, (2S,3S,4R,5S)-N-[5-({4-chloro-3-[({1-[4-(2-cyclopropoxyphenyl)pyridin-3-yl]cyclopropyl}amino)methyl]phenyl}sulfanyl)pentyl]-2,3,4,5,6-pentahydroxy-N-(4-hydroxybutyl)hexanamide]
< 100 nM | CCOC(=O)NCCCN(CCCSc1ccc(Cl)c(CNC2(c3cnccc3-c3ccccc3OC3CC3)CC2)c1)C(=O)[C@@H](O)[C@@H](O)[C@H](O)[C@@H](O)CO [Compound I-590, ethyl N-{3-[(2S,3S,4R,5S)-N-[3-({4-chloro-3-[({1-[4-(2-cyclopropoxyphenyl)pyridin-3-yl]cyclopropyl}amino)methyl]phenyl}sulfanyl)propyl]-2,3,4,5,6-pentahydroxyhexanamido]propyl} carbamate]
126 to 1000 nM | O=C(O)COCC(=O)N(CCCCc1cc(Cl)c(COC2(c3cnccc3-c3ccccc3OC3CC3)CC2)cc1Cl)C[C@H](O)[C@@H](O)[C@H](O)[C@H](O)CO (stereo in doubt) [Compound I-186, 2-[({4-[2,5-dichloro-4-({1-[4-(2-cyclopropoxyphenyl)pyridin-3-yl]cyclopropoxy}methyl)phenyl]butyl}[(2S,3R,4R,5R)-2,3,4,5,6-pentahydroxyhexyl]carbamoyl)methoxy]acetic acid]
< 100 nM | COCCN(C[C@@H](O)[C@H](O)[C@@H](O)[C@@H](O)CO)C(=O)CCCC(C)c1ccc(Cl)c(CNC2(c3cnccc3-c3ccccc3OC3CC3)CC2)c1 (stereo partly drawn) [Compound I-333, 5-{4-chloro-3-[({1-[4-(2-cyclopropoxyphenyl)pyridin-3-yl]cyclopropyl}amino)methyl]phenyl}-N-(2-methoxyethyl)-N-[(2R,3S,4S,5S)-2,3,4,5,6-pentahydroxyhexyl]hexanamide]
< 100 nM | CN(C[C@H](O)[C@@H](O)[C@H](O)[C@H](O)CO)C(=O)CCCCc1cc(Cl)c(CNC2(c3cnccc3-c3ccccc3OC3COC3)CC2)cc1Cl [Compound I-177, 5-(2,5-dichloro-4-{[(1-(4-[2-(oxetan-3-yloxy)phenyl]pyridin-3-yl}cyclopropyl)amino]methyl)phenyl)-N-methyl-N-[(2S,3R,4R,5R)-2,3,4,5,6-pentahydroxyhexyl]pentanamide]
< 100 nM | CC(C)N(CCCCNC(=O)N[C@@H](CO)[C@@H](O)[C@H](O)[C@H](O)CO)S(=O)(=O)c1cc(COC2(c3cnccc3-c3ccccc3OC3CC3)CC2)c(Cl)cc1F [Compound I-763, 4-chloro-5-((1-(4-(2-cyclopropoxyphenyl)pyridin-3-yl)cyclopropoxy)methyl)-2-fluoro-N-isopropyl-N-(4-(3-((2S,3R,4S,5R)-1,3,4,5,6-pentahydroxyhexan-2-yl)ureido)butyl) benzenesulfonamide]
